Source: patent publication US9421194B2, “Lung targeting dual drug delivery system” (priority 2010, dated 2016)

Experiments:
[1] = Systemic (plasma) concentration of CPT after single bolus IV injection; assay type: in vivo, rats; details: free CPT IV, 2 mg/kg
Description: FIG. 9 illustrates systemic (plasma) concentration of camptothecin (CPT) as a function of time after a single bolus IV injection of CPT-Nva-MPs (CPT dose=0.2 mg/kg) (squares) and free CPT (2 mg/kg) (triangles). Values are reported as mean±SD. The lower limit of quantitation was 0.1 ng/mL.
PEGylated 6 μm polystyrene MPs with three copies of the norvaline (Nva) α-amino acid prodrug of CPT were prepared. […] Referring to FIG. 10, anti-cancer efficacy was evaluated in an orthotopic rat lung cancer model and compared to a bolus injection of CPT. One week after A549 cell inoculation, nude rats were injected IV with CPT-Nva-MPs (50 and 100 mg/kg equivalent to CPT at 0.11 mg/kg and 0.22 mg/kg), free CPT (2 mg/kg) or vehicle control (saline containing 0.1% Tween 80). The treatment was conducted every 3 days for 27 days. The day after the last treatment, all animals were euthanized, and organs (lung, heart, […], spleen and […]) were dissected and weighed. The organs were fixed in 10% neutral buffered formalin for H&E staining. […] In addition, 40% of the animals receiving CPT-Nva-MPs (0.22 mg/kg) were free of cancer. […] See references 74 and 86, which are incorporated herein by reference as if fully set forth.

[2] = test system: A549 cell orthotopic lung cancer; assay: Anti-cancer efficacy in orthotopic rat lung cancer model; assay type: in vivo, nude rats; details: 2 mg/kg IV every 3 days for 27 days; p<0.05
Description: PEGylated 6 μm polystyrene MPs with three copies of the norvaline (Nva) α-amino acid prodrug of CPT were prepared. […] The treatment was conducted every 3 days for 27 days. The day after the last treatment, all animals were euthanized, and organs (lung, heart, […], spleen and […]) were dissected and weighed. The organs were fixed in 10% neutral buffered formalin for H&E staining. […] See references 74 and 86, which are incorporated herein by reference as if fully set forth.

CC[C@@]1(O)C(=O)OCc2c1cc1n(c2=O)Cc2cc3ccccc3nc2-1 [free CPT, camptothecin]
systemic CPT exposure (in words) [1]: high but short-lived systemic exposures
area of lung cancer versus untreated animals [2]: smaller areas of lung cancer
